Test results reported in PubChem BioAssay (NCI).
Values joined by “and” are separate entries in the source; they are usually repeats but may differ in a detail not shown here. Equal values may be shown once.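 Five concentrations, 48 hours, 96-well plates. GI50 is the concentration that inhibits growth by half. TGI: total growth inhibition.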

Legend:
Experiment in all cases: NCI-60 cell line screen, 48 h
MDA-MB-231 breast = tested on: MDA-MB-231 breast
UO-31 renal = tested on: UO-31 renal
A498 renal = tested on: A498 renal
NCI-H460 lung = tested on: NCI-H460 lung
TK-10 renal = tested on: TK-10 renal
HOP-62 NSCLC = tested on: HOP-62 NSCLC
PC-3 prostate = tested on: PC-3 prostate
HCT-116 colon = tested on: HCT-116 colon
K-562 leukemia = tested on: K-562 leukemia
MALME-3M melanoma = tested on: MALME-3M melanoma

| SMILES | GI50 (MDA-MB-231 breast) | TGI (MDA-MB-231 breast) | GI50 (UO-31 renal) | TGI (UO-31 renal) | GI50 (A498 renal) [µM] | TGI (A498 renal) [µM] | GI50 (NCI-H460 lung) | TGI (NCI-H460 lung) | GI50 (TK-10 renal) | TGI (TK-10 renal) | GI50 (HOP-62 NSCLC) | TGI (HOP-62 NSCLC) | GI50 (PC-3 prostate) [µM] | TGI (PC-3 prostate) | GI50 (HCT-116 colon) | TGI (HCT-116 colon) | GI50 (K-562 leukemia) | TGI (K-562 leukemia) | GI50 (MALME-3M melanoma) | TGI (MALME-3M melanoma) |
| --- | --- | --- | --- | --- | --- | --- | --- | --- | --- | --- | --- | --- | --- | --- | --- | --- | --- | --- | --- | --- |
| CCOC1Oc2ccccc2C(=O)/C1=C\Nc1ccc(C(=O)O)c(O)c1 (stereo not given) | 14000 nM | 31.2 µM | 40200 nM | > 100 µM | 30.6 | 73.7 | 38900 nM | > 100 µM | 22800 nM | 61.3 µM | 32.4 µM | > 100 µM | 39.2 | > 100 µM | 15.7 µM | 35.1 µM | 36.4 µM | > 100 µM | – | – |
| O=C(CCN1CCCC1)Nc1ccc2c(Nc3ccc(Br)cc3)c3ccccc3nc2c1 | 1570 nM | 2.99 µM | 1330 nM | 2.61 µM | 1.7 | 5.82 | 337 nM | 1.55 µM | 1720 nM | 3.37 µM | – | – | 1.4 | 3.04 µM | – | – | – | – | 1620 nM | 3.09 µM |
| C#Cc1cccc(Nc2ncnc3ccc(-c4cnc(N)nc4)cc23)c1 | 2050 nM | 11 µM | 515 nM | 7.75 µM | – | – | 2950 nM | 14 µM | 286 nM | 3.2 µM | 1.98 µM | 12.4 µM | 1.62 | 11.3 µM | 4.75 µM | 17.3 µM | 3.42 µM | > 100 µM | 1730 nM | 12.7 µM |
| CCOC(=O)Nc1cc2c(c(N)n1)N=C(c1ccccc1)CN2 | < 0.1 nM | 0.00463 µM | 107 nM | – | – | 22.2 | < 0.1 nM | 0.485 µM | – | > 60.7 µM | – | 18.5 µM | < 0.0001 | < 0.0001 µM | < 0.0001 µM | – | – | – | < 0.1 nM | 50.8 µM |
| CCN(CC)CCNc1ccc(N=Nc2cnc3ccccc3c2)c2ccccc12 | 1120 nM | 2.38 µM | 1510 nM | 3.05 µM | 1.65 | 3.05 | 1720 nM | 3.18 µM | 2100 nM | 3.87 µM | 1.66 µM | 3.02 µM | 1.28 | 2.6 µM | 1.51 µM | 2.84 µM | 1.03 µM | 2.3 µM | – | – |
| O=C(CS(=O)c1nc2ccccc2nc1-c1ccccc1)Nc1ccc(Cl)cc1 (stereo not given) | 18500 nM | 49.1 µM | 25000 nM | > 100 µM | 19 | 43 | 18600 nM | 47.7 µM | 27800 nM | 82.7 µM | 23.2 µM | 71.8 µM | 26.1 | > 100 µM | 16 µM | 33.1 µM | – | – | 19100 nM | 46.7 µM |
| CC(=O)OCC1OC([S-])C(OC(C)=O)C(OC(C)=O)C1OC(C)=O.[Au+].c1ccc(CN2[CH-]N(Cc3ccccc3)C(c3ccccc3)=C2c2ccccc2)cc1 | 1840 nM and 281 nM | 3.62 µM and 0.951 µM | 1830 nM and 445 nM | 4.31 µM and 1.99 µM | – | – | 3710 nM and 732 nM | 15.5 µM and 2.42 µM | 2660 nM and 796 nM | 8.34 µM and 3.8 µM | 4.56 µM and 1.11 µM | 19.4 µM and 4.59 µM | – | 4.73 µM and 1.17 µM | 3.08 µM and 0.554 µM | 9.95 µM and 2.52 µM | 2.59 µM and 0.397 µM | 7.8 µM and 15.1 µM | 1930 nM and 278 nM | 4.29 µM and 1.24 µM |
| O=C(O)CC(S)C(=O)O.[Li+].[Sb] (stereo not given) | > 100000 nM | > 100 µM | > 100000 nM | > 100 µM | > 100 | > 100 | 89500 nM | > 100 µM | > 100000 nM | > 100 µM | 44.2 µM | > 100 µM | > 100 | > 100 µM | > 100 µM | > 100 µM | 85.3 µM | > 100 µM | – | – |
| CCOP(=O)(OCC)C(NC(c1ccccc1)c1ccccc1)c1ccsc1 (stereo not given) | 7050 nM | 20.5 µM | 33100 nM | > 100 µM | 30.8 | 49.6 | 18700 nM | 53.7 µM | 16100 nM | 32.2 µM | – | – | 10.9 | 23.9 µM | – | – | 14.9 µM | 56.5 µM | – | – |
| O=C1c2c(c3c4ccccc4n(CCCCCCN4CCOCC4)c3c3[nH]c4ccccc4c23)C(=O)N1O | 2170 nM | 7.76 µM | 1250 nM | 3.11 µM | 9.15 | 25.4 | 1810 nM | 3.66 µM | 26200 nM | 54.8 µM | 18.2 µM | 55.2 µM | 12.1 | > 57 µM | 1.85 µM | 3.86 µM | – | – | 1740 nM | 3.76 µM |
| CSc1nc(SC)c2c(C)c(Br)[nH]c2n1 | – | > 100 µM | – | > 100 µM | – | > 100 | – | > 100 µM | – | > 100 µM | – | > 100 µM | – | > 100 µM | – | > 100 µM | – | – | – | > 100 µM |
